Key:
pancreatic cancer = pancreatic cancer patients, standard treatment; cited from earlier work
[1] = system: KPC/WCB3 cells orthotopically injected into the pancreas; experiment: KPC/WCB3 orthotopic mouse model of pancreatic cancer, histological analysis of pancreata; type: in vivo; details: orthotopic KPC/WCB3, C57BL/6J mice; treatment from day 7 for one month; FIG. 4
From the text: This model is constituted by the implantation of KPC/WBC3 cells originating from a spontaneous developed donor tumour in KPC mice into the pancreas of male wildtype C57BL/6J recipient mice. The pathology and tumour microenvironment in this model closely resemble human pancreatic cancer.
Control animals received normal drinking water and standard chow. One month after initiation treatment was stopped and mice were euthanized. Pancreata were harvested and analysed by histological analysis for level of fibrosis, number of Tregs and number of proliferating CAFs.

[2] = system: KPC mouse model of pancreatic ductal adenocarcinoma (PDAC); experiment: KPC mouse model of pancreatic cancer, histological analysis of pancreata; type: in vivo; details: KPC mice treated from 5 to 11 weeks of age; Compound 2 in mixed chow; FIG. 1
From the text: Control animals received normal drinking water and standard chow.

Row | SMILES | average median overall survival (pancreatic cancer) | response rate (pancreatic cancer) | Tregs [1] | proliferating CAFs [1] | tumour fibrosis score [1] | number of low-grade (PanIN-1 and PanIN-2) lesions [2] | tumour burden [2]
1 | Nc1ccn([C@@H]2O[C@H](CO)[C@@H](O)C2(F)F)c(=O)n1 [gemcitabine] | 6 months | 5-10% | – | – | – | – | –
2 | C[C@H](NC(=O)CCc1nc2cccnc2n1Cc1ccc(OC(F)(F)F)cc1)c1ccc(Cl)cc1 [Compound 2, N-[(S)-1-(4-chloro-phenyl)-ethyl]-3-[3-(4-trifluoromethoxy-benzyl)-3H-imidazo[4,5-b]pyridin-2-yl]-propionamide] | – | – | significantly reduces | significantly reduces | limited effect | reduces | without having significant effects

Source: patent US20240216385A1, “A PI3K-DELTA INHIBITOR FOR THE TREATMENT OF PANCREATIC CANCER” (IONCTURA SA, priority 2021, published 2024)
